Measurements: article PMC3808539, “CtpB Assembles a Gated Protease Tunnel Regulating Cell-Cell Signaling during Spore Formation in Bacillus subtilis” (Cell, 2013)
Ends that are not written are not given here.

How the values were obtained:
PDZ domain of CtpB = assay: Peptide spot assay; format: binding, Bacillus subtilis; conditions: inverted peptide array on cellulose membrane; CtpB variants 10 μg/ml, overnight 4°C; anti-polyHis chemiluminescence
Experimental: Peptide spot libraries were generated by synthesizing the 11 C-terminal residues of 1,849 B. subtilis proteins predicted to reside in the intermembrane space onto a cellulose membrane. Membranes were blocked for 4 hr with blocking buffer (blocking reagent, Sigma-Genosys) and subsequently incubated with CtpB. Bound protein was identified using specific antibodies. Further libraries were generated, where identified peptide sequences were systematically permutated.
Peptide spot libraries were generated by synthesizing the 11 C-terminal residues of 1849 B. subtilis proteins known to reside in the intermembrane space. Peptide libraries were generated by a MultiPep SPOTrobot (INTAVIS Bioanalytical Instruments AG) using an optimized method for generating inverted peptides ([Boisguerin et al., 2007], [Volkmer, 2009]). […] Bound CtpB was detected using a mouse anti-polyHis antibody (Sigma, 1:3,000 in blocking buffer, 2 hr at RT) followed by horseradish-peroxidase conjugated anti-mouse antibody (Calbiochem, 1:2,000 in blocking buffer, 1 hr at RT). […] The signal intensities with background-subtraction were recorded as […] with a LumiImager (Boehringer) and analyzed using the LumiAnalyst software. Secondary libraries for subtitutional analyses were generated by systematically permutating identified peptides and analyzed by the described peptide spot methodology.

full-length CtpB (S309A) = target: T1, full-length CtpB (S309A) (Bacillus subtilis, UniProt O35002, S309A); assay: Isothermal titration calorimetry, full-length CtpB (S309A); format: binding
T1 construct: the isolated PDZ domain and full-length CtpB (S309A); His tag; made in house; host or cells: E. coli BL21(DE3)pLysS
Source text: (§1) Figure S4 Peptide-Binding Properties of the PDZ Domain, Related to Figure 4 (A) The C termini of B. subtilis proteins predicted to reside in the intermembrane space were synthesized on a cellulose membrane according to the method of inverted peptides. Spotted membranes were probed with either the PDZ domain of CtpB (left) or the ΔPDZ mutant (right). (B) Identified strong binding peptides were further analyzed by systematically substituting residues critical for binding to the PDZ domain of CtpB. (C) ITC analysis testing the interaction of the indicated peptides with the isolated PDZ domain and full-length CtpB (S309A). Raw data (top) and binding isotherm derived from the integrated heat (bottom) are shown. The determined KD dissociation constants are indicated below the binding curves. […] The final model is overlaid with the omit 2Fo-Fc electron density (1.9 Å resolution, contoured at 1.2 σ) calculated without peptide ligand and Arg168.
(§2) Thermodynamic values characterizing the interaction between CtpB and peptide ligands were determined by ITC (MCS-ITC; Microcal). […]
(§3) The interaction between CtpB (wild-type; mutant forms or isolated PDZ domain) and peptide ligands was characterized by ITC measurements (MCS-ITC; Microcal). […] Resulting data were analyzed with the MicroCal ORIGIN software, following the instructions of the manufacturer. […]

[1] = target: T2, isolated PDZ domain of CtpB (Bacillus subtilis, UniProt O35002); assay: Isothermal titration calorimetry, isolated PDZ domain; format: binding
T2 construct: His tag; made in house; host or cells: E. coli BL21(DE3)pLysS
Source text: as §1, §2, §3

CtpB R168A = target: T3, CtpB R168A (Bacillus subtilis, UniProt O35002, R168A); assay: Isothermal titration calorimetry, full-length CtpB R168A; format: binding
T3 construct: with the full-length CtpB variants R168A, R168F and V118Y; His tag; made in house; host or cells: E. coli BL21(DE3)pLysS
Experimental: (§4) Figure S5 Peptide Binding to the PDZ Domain Stabilizes the Active Protease State of CtpB, Related to Figure 5 (A) The interfaces of the PDZ domain with the other domains of CtpB were analyzed to evaluate the prevailing conformation of CtpB in solution. The ribbon representations of CtpBi (left) and CtpBa1 (right) emphasize the PDZ domain that is shown in yellow. Interactions stabilizing the respective domain interfaces (summarized in top panel) are highlighted in orange and the residues forming hydrogen-bonds are listed. […] (B) ITC analysis characterizing the interaction of a peptide having an Ala-Tyr-Ala C terminus with the full-length CtpB variants R168A, R168F and V118Y. Raw data (top) and binding isotherm derived from the integrated heat (bottom) are shown. The determined KD dissociation constants are indicated below the binding curves. (C) Left: a ribbon model of the CtpB V118Y mutant structure, which was crystallized in the same resting conformation as CtpBi. […]
as §2, §3

CtpB R168F = target: T4, CtpB R168F (Bacillus subtilis, UniProt O35002, R168F); assay: Isothermal titration calorimetry, full-length CtpB R168F; format: binding
T4 construct: with the full-length CtpB variants R168A, R168F and V118Y; His tag; made in house; host or cells: E. coli BL21(DE3)pLysS
Experimental: as §4, §2, §3

CtpB = assay: Degradation of in vitro translated 4FAproc constructs with distinct C termini by CtpB; format: biochemical, Bacillus subtilis; conditions: autoradiography
Experimental: 4FAproc with alternative C-termini was produced using the promega TNT Quick Coupled Transcription/Translation System, following manufactures instructions. Briefly, 40 μl of TNT Master Mix were added to 0.5 μg of template plasmid DNA and 20 μCi of ^35S-methionine (Perkinelmer). The coupled transcription-translation reaction was carried out upon incubation at 30°C for 2 hr. Relative product amounts were normalized based on ^35S-autoradiography following SDS-PAGE analysis.
To measure the proteolytic activities of the SpoIV signaling proteases, recombinant, purified proteases (CtpB, 4B or both, 3 μM) were mixed with respective 4FA model substrates (15 μM) and incubated for various times at 25°C. Reactions were stopped by adding SDS loading buffer. Subsequently, samples were incubated for 5 min at 95°C and analyzed by SDS-PAGE and Coomassie staining. […] Reaction aliquots were stopped and analyzed as described. To compare the cleavage efficiency of various CtpB mutants, the amount of 4FAproc substrate was quantified by analyzing the stained gels using the software ImageJ ([Schneider et al., 2012]). […] Reactions were analyzed by SDS–PAGE and immunoblotting using anti-GFP antibodies ([Rudner and Losick, 2002]). […] The cleavage assays were carried out as described and analyzed by SDS-PAGE and ^35S-autoradiography using Amercham Hyperfilm™ MP films.

CtpB S309A mutant = assay: Cocrystallization of CtpB S309A with peptide; format: binding, Bacillus subtilis; conditions: S309A/VPA complex, 1.9 Å, 20 mg/ml CtpB incubated with 1 mM peptide for 1 hr at 19°C
Experimental: CtpB crystals were grown at 19°C by the sitting-drop vapor-diffusion method using a 2:1 mixture of protein (20 mg/ml) and reservoir solution. […] Finally, diffraction data of CtpBi/VPA was collected at Deutsches Elektronen-Synchrotron (DESY, beamline P14) using a Pilatus detector (Dectris). Integration and scaling of diffraction data were performed with the programs DENZO, and [sequence]
For all other structures, phases were determined by molecular replacement using the program PHASER ([McCoy et al., 2007]) and the structure of CtpBa1 as search model. In all cases, energy restrained refinement was performed with the programs CNS ([Brünger et al., 1998]) and PHENIX ([Adams et al., 2010]), utilizing bulk solvent and anisotropic B-factor corrections depending on the development of the Rfree index. Refinement was performed in multiple cycles, interrupted for manual model re-building with the program O ([Jones et al., 1991]). Final models were verified with the program MolProbity ([Chen et al., 2010]) and crystal contacts analyzed using the PISA algorithm implemented on the Protein Data Bank Europe website ([Krissinel and Henrick, 2007]).

T2 sequence (O35002 92-182): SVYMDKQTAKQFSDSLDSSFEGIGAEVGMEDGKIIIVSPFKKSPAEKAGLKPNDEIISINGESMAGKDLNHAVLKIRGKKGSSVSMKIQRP
T3 sequence (O35002 24-480 R168A): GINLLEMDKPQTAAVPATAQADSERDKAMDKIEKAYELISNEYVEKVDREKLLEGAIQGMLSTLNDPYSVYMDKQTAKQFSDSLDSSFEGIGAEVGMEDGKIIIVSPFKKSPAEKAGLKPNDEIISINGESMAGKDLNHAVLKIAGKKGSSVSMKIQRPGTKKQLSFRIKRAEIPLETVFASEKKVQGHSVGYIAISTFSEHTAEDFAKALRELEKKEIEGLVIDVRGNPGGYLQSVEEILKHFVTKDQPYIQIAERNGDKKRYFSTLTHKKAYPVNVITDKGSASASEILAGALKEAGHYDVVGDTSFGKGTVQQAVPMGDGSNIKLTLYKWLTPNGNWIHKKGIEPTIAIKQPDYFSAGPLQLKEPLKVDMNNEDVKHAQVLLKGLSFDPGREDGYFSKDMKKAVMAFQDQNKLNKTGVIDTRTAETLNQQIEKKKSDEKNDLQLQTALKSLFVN
T1 sequence (O35002 24-480 S309A): as the sequence (O35002 24-480 R168A) above, with A145R, S286A counted along it
T4 sequence (O35002 24-480 R168F): as the sequence (O35002 24-480 R168A) above, with A145F counted along it

Substance: H-NLVLAGLHSYA-OH
- binding to PDZ domain in peptide spot analysis (PDZ domain of CtpB): identified PDZ binder

Substance: FMLLRRKAYA
- Kd (full-length CtpB (S309A)): 6.5 µM
- Kd [1]: 2.3 µM
- Kd (CtpB R168A): 21 µM
- Kd (CtpB R168F): 40 µM

Substance: Ala-Pro-Ala
- degradation by CtpB (in words) (CtpB; 0.3 μM wild-type CtpB, in vitro translated 35S-methionine-labeled 4FAproc constructs): rapidly degraded
- efficiency in stimulating protease function (CtpB; 4FAproc constructs applied at decreasing concentrations, 0.3 μM CtpB): less efficient in stimulating protease function than the Ala-Tyr-Val motif, especially at lower concentrations

Substance: FMLLRRKAYV
- Kd [1]: 0.9 µM

Substance: H-EMDKPQTAAVPA-OH [oligopeptide having a Val-Pro-Ala C terminus, cocrystallized with S309A]
- conformation of S309A cocrystallized with peptide (CtpB S309A mutant): active conformation
- conformation of S309A cocrystallized with peptide (CtpB S309A mutant; listed as oligopeptide having a Val-Pro-Ala C terminus): peptide binding itself is sufficient to transform the resting protease into the active conformation
